Experimental data as given in PubChem BioAssay (NCI).
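Each compound was tested at five concentrations against cells in 96-well plates for 48 hours. At the TGI there is no net growth.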

Tests used:
Experiment in all cases: NCI anticancer screen, dose series, 48 h
SN12C renal = test system: SN12C renal
TK-10 renal = test system: TK-10 renal
NCI-H226 lung = test system: NCI-H226 lung
IGROV1 ovarian = test system: IGROV1 ovarian
MCF7 breast = test system: MCF7 breast
SK-MEL-28 melanoma = test system: SK-MEL-28 melanoma
MDA-MB-231 breast = test system: MDA-MB-231 breast
SK-MEL-5 melanoma = test system: SK-MEL-5 melanoma
RXF 393 renal = test system: RXF 393 renal
HCT-116 colon = test system: HCT-116 colon
MDA-N = test system: MDA-N
OVCAR-5 ovarian = test system: OVCAR-5 ovarian
NCI-H23 lung = test system: NCI-H23 lung
SK-MEL-2 melanoma = test system: SK-MEL-2 melanoma
SK-OV-3 ovarian = test system: SK-OV-3 ovarian
OVCAR-8 ovarian = test system: OVCAR-8 ovarian
SNB-75 CNS = test system: SNB-75 CNS
SF-295 CNS = test system: SF-295 CNS
DU-145 prostate = test system: DU-145 prostate
PC-3 prostate = test system: PC-3 prostate
MOLT-4 leukemia = test system: MOLT-4 leukemia
A498 renal = test system: A498 renal
SR leukemia = test system: SR leukemia
HCC-2998 colon = test system: HCC-2998 colon
HL-60(TB) leukemia = test system: HL-60(TB) leukemia
HOP-62 NSCLC = test system: HOP-62 NSCLC
LOX IMVI melanoma = test system: LOX IMVI melanoma
MALME-3M melanoma = test system: MALME-3M melanoma
SNB-19 CNS = test system: SNB-19 CNS
SW-620 colon = test system: SW-620 colon
M14 melanoma = test system: M14 melanoma
K-562 leukemia = test system: K-562 leukemia
786-0 renal = test system: 786-0 renal
SF-539 CNS = test system: SF-539 CNS
UACC-257 melanoma = test system: UACC-257 melanoma
MDA-MB-435 = test system: MDA-MB-435
EKVX NSCLC = test system: EKVX NSCLC
NCI-H460 lung = test system: NCI-H460 lung
SF-268 CNS = test system: SF-268 CNS
A549 NSCLC = test system: A549 NSCLC
HT29 colon = test system: HT29 colon
T-47D breast = test system: T-47D breast
CCRF-CEM leukemia = test system: CCRF-CEM leukemia
HOP-92 NSCLC = test system: HOP-92 NSCLC
HCT-15 colon = test system: HCT-15 colon
ACHN renal = test system: ACHN renal
KM12 colon = test system: KM12 colon
OVCAR-3 ovarian = test system: OVCAR-3 ovarian
NCI/ADR-RES ovarian = test system: NCI/ADR-RES ovarian
UO-31 renal = test system: UO-31 renal
NCI-H522 lung = test system: NCI-H522 lung
U251 CNS = test system: U251 CNS
COLO 205 colon = test system: COLO 205 colon
HS 578T breast = test system: HS 578T breast
CAKI-1 renal = test system: CAKI-1 renal
BT-549 breast = test system: BT-549 breast
OVCAR-4 ovarian = test system: OVCAR-4 ovarian
RPMI-8226 leukemia = test system: RPMI-8226 leukemia
UACC-62 melanoma = test system: UACC-62 melanoma

`CSc1ccc(/C=C/c2ccnc3ccccc23)cc1` was tested, and the TGI (SN12C renal) was 28.8 µM, the TGI (TK-10 renal) was 26.8 µM and the TGI (NCI-H226 lung) was 29 µM. The TGI (IGROV1 ovarian) was 39.4 µM, the TGI (MCF7 breast) was 28.6 µM and the TGI (SK-MEL-28 melanoma) was 32.6 µM. It also gave a TGI (MDA-MB-231 breast) of 30.8 µM, a TGI (SK-MEL-5 melanoma) of 18.9 µM and a TGI (RXF 393 renal) of 33 µM. It also gave a TGI (HCT-116 colon) of 22.3 µM, a TGI (MDA-N) of 27 µM and a TGI (OVCAR-5 ovarian) of 35 µM. It also gave a TGI (NCI-H23 lung) of 28.4 µM, a TGI (SK-MEL-2 melanoma) of 30.1 µM and a TGI (SK-OV-3 ovarian) of 33.3 µM. It also gave a TGI (OVCAR-8 ovarian) of 28.8 µM, a TGI (SNB-75 CNS) of 44.6 µM and a TGI (SF-295 CNS) of 27.5 µM. It also gave a TGI (DU-145 prostate) of 32.7 µM, a TGI (PC-3 prostate) of 19.2 µM and a TGI (MOLT-4 leukemia) of 66.9 µM. It also gave a TGI (A498 renal) of 29.2 µM, a TGI (SR leukemia) of 32.9 µM and a TGI (HCC-2998 colon) of 27.4 µM. The TGI (HL-60(TB) leukemia) was 24.4 µM, the TGI (HOP-62 NSCLC) was 34.8 µM and the TGI (LOX IMVI melanoma) was 25.4 µM. It also gave a TGI (MALME-3M melanoma) of 32.6 µM, a TGI (SNB-19 CNS) of 34 µM and a TGI (SW-620 colon) of 27 µM. It also gave a TGI (M14 melanoma) of 22.1 µM, a TGI (K-562 leukemia) of 30.9 µM and a TGI (786-0 renal) of 27.9 µM. For the same compound, the TGI (SF-539 CNS) was 32.7 µM, the TGI (UACC-257 melanoma) was 32.9 µM and the TGI (MDA-MB-435) was 12.5 µM. It also gave a TGI (EKVX NSCLC) of 22.3 µM, a TGI (NCI-H460 lung) of 27.3 µM and a TGI (SF-268 CNS) of 66 µM. It also gave a TGI (A549 NSCLC) of 25 µM, a TGI (HT29 colon) of 31 µM and a TGI (T-47D breast) of 41.7 µM. The TGI (CCRF-CEM leukemia) was 78.3 µM, the TGI (HOP-92 NSCLC) was 30.2 µM and the TGI (HCT-15 colon) was 25.7 µM. For the same compound, the TGI (ACHN renal) was 29.5 µM, the TGI (KM12 colon) was greater than 100 µM and the TGI (OVCAR-3 ovarian) was 25.9 µM. The TGI (NCI/ADR-RES ovarian) was 29.5 µM, the TGI (UO-31 renal) was 26.5 µM and the TGI (NCI-H522 lung) was 28.6 µM. The TGI (U251 CNS) was 25.4 µM, the TGI (COLO 205 colon) was 27.5 µM and the TGI (HS 578T breast) was 43.4 µM.
In the case of `Cc1cc(OCC(=O)N/N=C/C(Br)=C/c2ccccc2)nc(SCC(=O)N/N=C/C(Br)=C/c2ccccc2)n1`, the TGI (SN12C renal) is reported as greater than 100 µM, the TGI (CAKI-1 renal) is reported as greater than 100 µM and the TGI (IGROV1 ovarian) is reported as greater than 100 µM. The TGI (MCF7 breast) was greater than 100 µM, the TGI (SK-MEL-28 melanoma) was greater than 100 µM and the TGI (SK-MEL-5 melanoma) was greater than 100 µM. For the same compound, the TGI (RXF 393 renal) was greater than 100 µM, the TGI (HCT-116 colon) was greater than 100 µM and the TGI (MDA-N) was greater than 100 µM. It also gave a TGI (OVCAR-5 ovarian) greater than 100 µM, a TGI (NCI-H23 lung) greater than 100 µM and a TGI (SF-295 CNS) greater than 100 µM. For the same compound, the TGI (DU-145 prostate) was greater than 100 µM, the TGI (PC-3 prostate) was greater than 100 µM and the TGI (A498 renal) was greater than 100 µM. It also gave a TGI (SR leukemia) greater than 100 µM, a TGI (HCC-2998 colon) of 82.9 µM and a TGI (HL-60(TB) leukemia) greater than 100 µM. It also gave a TGI (HOP-62 NSCLC) greater than 100 µM, a TGI (LOX IMVI melanoma) greater than 100 µM and a TGI (SNB-19 CNS) greater than 100 µM. For the same compound, the TGI (SW-620 colon) was greater than 100 µM, the TGI (M14 melanoma) was greater than 100 µM and the TGI (K-562 leukemia) was greater than 100 µM. The TGI (786-0 renal) was greater than 100 µM, the TGI (BT-549 breast) was greater than 100 µM and the TGI (OVCAR-4 ovarian) was greater than 100 µM. For the same compound, the TGI (UACC-257 melanoma) was greater than 100 µM, the TGI (MDA-MB-435) was greater than 100 µM and the TGI (EKVX NSCLC) was greater than 100 µM. The TGI (NCI-H460 lung) was greater than 100 µM, the TGI (SF-268 CNS) was greater than 100 µM and the TGI (RPMI-8226 leukemia) was greater than 100 µM. It also gave a TGI (HT29 colon) greater than 100 µM, a TGI (CCRF-CEM leukemia) greater than 100 µM and a TGI (HOP-92 NSCLC) of 86.4 µM. For the same compound, the TGI (HCT-15 colon) was greater than 100 µM, the TGI (ACHN renal) was greater than 100 µM and the TGI (KM12 colon) was greater than 100 µM. For the same compound, the TGI (OVCAR-3 ovarian) was greater than 100 µM, the TGI (NCI/ADR-RES ovarian) was greater than 100 µM and the TGI (UO-31 renal) was greater than 100 µM. It also gave a TGI (UACC-62 melanoma) greater than 100 µM, a TGI (NCI-H522 lung) greater than 100 µM and a TGI (U251 CNS) greater than 100 µM. It also gave a TGI (COLO 205 colon) greater than 100 µM and a TGI (HS 578T breast) greater than 100 µM.
